US6673749B1, “Use of phyllocladane diterpenoids for plant growth promotion and alleviation of growth retardant allelochemicals, and method therefor” (Council of Scientific and Industrial Research, priority 2002, dated 2004)

Assays:
Type in all cases: in vivo
Hordeum vulgare = assay: Seed germination and seedling shoot/root growth test in petridishes; settings: control = 100%
Procedure: (§1) As noted above the activity of phyllocladane diterpenoids used in the practice of this invention was observed when these compounds were tested for their effects on seed germination, root and shoot growth of certain plant species and their antagonistic effect on plant growth retardants by the method described by Bagchi G. D. et al Phytochemistry, 45(6)1131-1133, 1997.
(§2) Plant growth promoting activity of calliterpenone, calliterpenone monoacetate, and calliterpenone di-acetate was examined at 0.1, 0.01 and 0.001 μM concentrations. The tests were conducted against seeds of two monocotyledonous (Hordeum vulgare and Triticum aestivum) and two dicotyledonous plants (Vigna radiata and Trigonella foenum-graecum). Control seeds were germinated in distilled water and all the observations were compared with […]. The root and shoot growth of all the plant species were affected by the phyllocladane diterpenoids, although the extent of effect varied considerably in the plant species with the chemicals and their concentrations. […] Details of the procedure adopted and results obtained are discussed in the various examples.
(§3) 100 ml stalk solutions of 0.1 μM concentration were prepared by dissolving required amounts of various test compounds (depending upon their molecular weights) in minimum amount of ethanol or acetone and adding distilled water. From this stalk solution, 0.01 μM and 0.001 μM concentrations were prepared. Calliterpenone and calliterpenone di acetate was dissolved in 2.0 ml absolute ethanol (Merc), while; calliterpenone monoacetate, isopropylideno calliterpenone and trihydroxy calliterpenone were dissolved in 2.0 ml spectral grade acetone (Ranbaxy). The respective control test solutions of distilled water of each concentration also contained equal amount of absolute ethanol or acetone. For an assay, 10 seeds were placed on Whatman filter paper (moistened with 5.0 ml of test solution in a 9.0 cm diameter petridish (in triplicate). The pteridishes were incubated for 9 days in a germinator, maintained at 25.0±1.0° C. with 90% humidity and 4 hr light/day. At the end of incubation, observations were recorded on the seedlings in terms of germination, shoot and root growth. The data on the length of shoot and root of seedlings and number of seeds germinated in different concentrations of compounds were compared with the control, which was taken as 100%. The data thus obtained were presented in Table-1.
(§4) Root growth of seedlings was measured in the similar way as shoot growth from the experiment as described in Example 1.
(§5) Effect of test compounds on germination was observed from the same experiment as described in Example 1.

[1] = tested on: Trigonella foenum-graecum; assay: as above; settings: for Percent (%) germination of seeds in relation to control on 9th day after sowing / Percent (%) root growth of seedlings in relation to control on 9th day after sowing / Percent (%) shoot growth of seedlings in relation to control on 9th day after sowing: Trigonella foenum graecum, control = 100%
Procedure: as §1, §2, §3, §4, §5

Triticum aestivum = assay: as above; settings: control = 100%
Procedure: as §1, §2, §3, §4, §5

Vigna radiata = assay: as above; settings: for Percent (%) germination of seeds in relation to control on 9th day after sowing / Percent (%) root growth of seedlings in relation to control on 9th day after sowing / Percent (%) shoot growth of seedlings in relation to control on 9th day after sowing: Vigna radiata, control = 100%
Procedure: as §1, §2, §3, §4, §5

Hibiscus sabdariffa = assay: Seed germination and seedling growth, comparison with GA3 (Example 4)
Procedure: as §3
(§6) Effect of calliterpenone and its derivatives on seed germination and seedling growth in Hibiscus sabdariffa and Sesbania cannabina were measured in the similar way as these were measured in Example-1.

Sesbania cannabina = assay: as above
Procedure: as §3, §6

With `C=C1C[C@]23C[C@@]1(O)CC[C@H]2[C@@]12C=C[C@H](O)[C@@](C)(C(=O)O1)[C@H]2[C@@H]3C(=O)O` [GA3, Gibberellic acid, reference compound] the “Percent (%) germination of seeds in relation to control on 9th day after sowing” value (“Percent (%) germination of seeds” below) (Hordeum vulgare; 0.001 μM) was 100%, the “Percent (%) root growth of seedlings in relation to control on 9th day after sowing” value (from here on “Percent (%) root growth of seedlings”) (Hordeum vulgare; 0.001 μM) was 132% and the “Percent (%) shoot growth of seedlings in relation to control on 9th day after sowing” value (shortened to “Percent (%) shoot growth of seedlings”) (Hordeum vulgare; 0.001 μM) was 104%. The “Percent (%) germination of seeds” value (Hordeum vulgare; 0.01 μM) was 100%, the “Percent (%) root growth of seedlings” value (Hordeum vulgare; 0.01 μM) was 115% and the “Percent (%) shoot growth of seedlings” value (Hordeum vulgare; 0.01 μM) was 91%. The “Percent (%) germination of seeds” value (Hordeum vulgare; 0.1 μM) was 100%, the “Percent (%) root growth of seedlings” value (Hordeum vulgare; 0.1 μM) was 70% and the “Percent (%) shoot growth of seedlings” value (Hordeum vulgare; 0.1 μM) was 55%. The “Percent (%) germination of seeds” value ([1]; 0.001 μM) was 100%, the “Percent (%) root growth of seedlings” value ([1]; 0.001 μM) was 123% and the “Percent (%) shoot growth of seedlings” value ([1]; 0.001 μM) was 116%. For the same molecule, the “Percent (%) germination of seeds” value ([1]; 0.01 μM) was 100%, the “Percent (%) root growth of seedlings” value ([1]; 0.01 μM) was 45% and the “Percent (%) shoot growth of seedlings” value ([1]; 0.01 μM) was 112%. For the same molecule, the “Percent (%) germination of seeds” value ([1]; 0.1 μM) was 100%, the “Percent (%) root growth of seedlings” value ([1]; 0.1 μM) was 45% and the “Percent (%) shoot growth of seedlings” value ([1]; 0.1 μM) was 93%. For the same molecule, the “Seed germination as compared to 100% in control” value ([1]; Trigonella foenum-graceum, concentration not specified) was 100%, the “Percent (%) germination of seeds” value (Triticum aestivum; 0.001 μM) was 100% and the “Percent (%) root growth of seedlings” value (Triticum aestivum; 0.001 μM) was 131%. The “Percent (%) shoot growth of seedlings” value (Triticum aestivum; 0.001 μM) was 120%, the “Percent (%) germination of seeds” value (Triticum aestivum; 0.01 μM) was 100% and the “Percent (%) root growth of seedlings” value (Triticum aestivum; 0.01 μM) was 116%. The “Percent (%) shoot growth of seedlings” value (Triticum aestivum; 0.01 μM) was 115%, the “Percent (%) germination of seeds” value (Triticum aestivum; 0.1 μM) was 100% and the “Percent (%) root growth of seedlings” value (Triticum aestivum; 0.1 μM) was 62%. The “Percent (%) shoot growth of seedlings” value (Triticum aestivum; 0.1 μM) was 113%, the “Seed germination as compared to 100% in control” value (Vigna radiata; V.radiata, concentration not specified) was 200% and the “Percent (%) germination of seeds” value (Vigna radiata; 0.001 μM) was 200%. The “Percent (%) root growth of seedlings” value (Vigna radiata; 0.001 μM) was 102%, the “Percent (%) shoot growth of seedlings” value (Vigna radiata; 0.001 μM) was 126% and the “Percent (%) germination of seeds” value (Vigna radiata; 0.01 μM) was 200%. For the same molecule, the “Percent (%) root growth of seedlings” value (Vigna radiata; 0.01 μM) was 103%, the “Percent (%) shoot growth of seedlings” value (Vigna radiata; 0.01 μM) was 196% and the “Percent (%) germination of seeds” value (Vigna radiata; 0.1 μM) was 200%. For the same molecule, the “Percent (%) root growth of seedlings” value (Vigna radiata; 0.1 μM) was 104%, the “Percent (%) shoot growth of seedlings” value (Vigna radiata; 0.1 μM) was 183% and the “Seed Ger.” value (Hibiscus sabdariffa; 0.001 μM) was 3. For the same molecule, the “Root Growth (mm) 3rd Day” value (Hibiscus sabdariffa; 0.001 μM) was 21.5 mm, the “Shoot growth 3rd Day” value (Hibiscus sabdariffa; 0.001 μM) was 47.6 and the “Root Growth (mm) 6th Day” value (Hibiscus sabdariffa; 0.001 μM) was 22.8 mm. For the same molecule, the “Shoot growth 6th Day” value (Hibiscus sabdariffa; 0.001 μM) was 76.3, the “Root Growth (mm) 9th Day” value (Hibiscus sabdariffa; 0.001 μM) was 25.0 mm and the “Shoot growth 9th Day” value (Hibiscus sabdariffa; 0.001 μM) was 85.8. The “Seed Ger.” value (Hibiscus sabdariffa; 0.01 μM) was 3, the “Root Growth (mm) 3rd Day” value (Hibiscus sabdariffa; 0.01 μM) was 15.8 mm and the “Shoot growth 3rd Day” value (Hibiscus sabdariffa; 0.01 μM) was 39.6. The “Root Growth (mm) 6th Day” value (Hibiscus sabdariffa; 0.01 μM) was 16.6 mm, the “Shoot growth 6th Day” value (Hibiscus sabdariffa; 0.01 μM) was 76.5 and the “Root Growth (mm) 9th Day” value (Hibiscus sabdariffa; 0.01 μM) was 16.6 mm. The “Shoot growth 9th Day” value (Hibiscus sabdariffa; 0.01 μM) was 76.5, the “Seed Ger.” value (Hibiscus sabdariffa; 0.1 μM) was 2 and the “Root Growth (mm) 3rd Day” value (Hibiscus sabdariffa; 0.1 μM) was 15.3 mm. For the same molecule, the “Shoot growth 3rd Day” value (Hibiscus sabdariffa; 0.1 μM) was 46.8, the “Root Growth (mm) 6th Day” value (Hibiscus sabdariffa; 0.1 μM) was 29.3 mm and the “Shoot growth 6th Day” value (Hibiscus sabdariffa; 0.1 μM) was 76.6. The “Root Growth (mm) 9th Day” value (Hibiscus sabdariffa; 0.1 μM) was 32.0 mm, the “Shoot growth 9th Day” value (Hibiscus sabdariffa; 0.1 μM) was 81.6 and the “Seed Ger.” value (Sesbania cannabina; 0.001 μM) was 1. For the same molecule, the “Root Growth (mm) 3rd Day” value (Sesbania cannabina; 0.001 μM) was 35.5 mm, the “Shoot growth 3rd Day” value (Sesbania cannabina; 0.001 μM) was 31.0 and the “Root Growth (mm) 6th Day” value (Sesbania cannabina; 0.001 μM) was 34.0 mm. The “Shoot growth 6th Day” value (Sesbania cannabina; 0.001 μM) was 85.6, the “Root Growth (mm) 9th Day” value (Sesbania cannabina; 0.001 μM) was 40.0 mm and the “Shoot growth 9th Day” value (Sesbania cannabina; 0.001 μM) was 103.6. For the same molecule, the “Seed Ger.” value (Sesbania cannabina; 0.01 μM) was 2, the “Root Growth (mm) 3rd Day” value (Sesbania cannabina; 0.01 μM) was 23.5 mm and the “Shoot growth 3rd Day” value (Sesbania cannabina; 0.01 μM) was 27.0. For the same molecule, the “Root Growth (mm) 6th Day” value (Sesbania cannabina; 0.01 μM) was 25.5 mm, the “Shoot growth 6th Day” value (Sesbania cannabina; 0.01 μM) was 66.8 and the “Root Growth (mm) 9th Day” value (Sesbania cannabina; 0.01 μM) was 27.8 mm. For the same molecule, the “Shoot growth 9th Day” value (Sesbania cannabina; 0.01 μM) was 67.0, the “Seed Ger.” value (Sesbania cannabina; 0.1 μM) was 1 and the “Root Growth (mm) 3rd Day” value (Sesbania cannabina; 0.1 μM) was 16.5 mm. The “Shoot growth 3rd Day” value (Sesbania cannabina; 0.1 μM) was 32.5, the “Root Growth (mm) 6th Day” value (Sesbania cannabina; 0.1 μM) was 16.6 mm and the “Shoot growth 6th Day” value (Sesbania cannabina; 0.1 μM) was 42.3. The “Root Growth (mm) 9th Day” value (Sesbania cannabina; 0.1 μM) was 26.6 mm and the “Shoot growth 9th Day” value (Sesbania cannabina; 0.1 μM) was 61.3.
